# Experimental data from patent publication US20240316059A1, “PEPTIDE DRUG CONJUGATES” (Oncopeptides AB, priority 2021, published 2024).
# Where two headings read alike, the source gives them in different places.
# Columns and labels:
# [1] = test system: MM.1S cells; assay: In vitro cytotoxic potency in MM.1S cell viability assay (CellTiter-Glo); format: cell-based, human; details: Homo sapiens, MM1.S, 72 h
# Description: Methods: MM.1S Cells were cultivated in RPMI medium 1640 (IX) supplemented with 10 μg/μL penicillin/streptomycin, 10% heat inactivated FBS, 0.1 mM Sodium Pyruvate, 1×MEM NEAA (ThermoFisher) and 1 mM HEPES. Cells were grown to reach log phase before being exposed to the test compounds.
# (§1) Test compounds (Example compounds 1 to 36, 38 to 41 and 45 to 48) and comparative compounds (bendamustine, busulfan, melphalan, chlorambucil and 4-hydroperoxy cyclophosphamide) were dissolved in 100% DMSO and added to a 384 assay plate. Additional DMSO was added to maintain the same final DMSO concentration (0.2%) in all wells. 25 μL cell suspension with a concentration of 100000 cells/mL was added to each well. The cells were cultured in a CO2 incubator at 37° C. for 72 h. Plates were equilibrated to room temperature for 30 minutes before adding 20 μL CellTiter-Glo® 2.0 (Promega) reagent to all wells. The plate was then allowed to stabilize for 20 minutes before recording the luminescence (emission filter 700 nm) in an Envision plate reader.
# (§2) All cells were cultivated in RPMI medium 1640 (IX). All media was supplemented with 10 μg/μl penicillin/streptomycin, 10% heat inactivated FBS, 0.1 mM Sodium Pyruvate, 1×MEM NEAA (ThermoFisher) and 1 mM HEPES. The DERL-2 cells had higher FBS (20%) and 40 ng/mL IL-2 was added. hPBMCs were thawed and allowed to acclimatise overnight and then stimulated with 10 μg/mL PHA-M and 40 ng/mL IL-2 for 4 hours before being exposed to test compounds. All cells, except for hPBMCs, were grown to reach log phase before being exposed to the test compounds.
# as §1, with “compounds” for “compounds (Example compounds 1 to 36, 38 to 41 and 45 to 48) and comparative compounds (bendamustine, busulfan, melphalan, chlorambucil and 4-hydroperoxy cyclophosphamide)”, “(Em” for “(emission”
# [2] = test system: AMO-1; assay: In vitro cytotoxicity, AMO-1 (Multiple Myeloma); format: cell-based; details: Homo sapiens, read-out: Cytotoxicity IC50, AMO-1
# Description: as §2
# as §1, with “compounds” for “compounds (Example compounds 1 to 36, 38 to 41 and 45 to 48) and comparative compounds (bendamustine, busulfan, melphalan, chlorambucil and 4-hydroperoxy cyclophosphamide)”, “(Em” for “(emission”
# [3] = test system: EJM; assay: In vitro cytotoxicity, EJM (Multiple Myeloma); format: cell-based; details: Homo sapiens, 72 h
# Description: as §2
# as §1, with “compounds” for “compounds (Example compounds 1 to 36, 38 to 41 and 45 to 48) and comparative compounds (bendamustine, busulfan, melphalan, chlorambucil and 4-hydroperoxy cyclophosphamide)”, “(Em” for “(emission”
# [4] = test system: KMS-12-BM; assay: In vitro cytotoxicity, KMS-12-BM (Multiple Myeloma); format: cell-based; details: Homo sapiens, 72 h
# Description: as §2
# as §1, with “compounds” for “compounds (Example compounds 1 to 36, 38 to 41 and 45 to 48) and comparative compounds (bendamustine, busulfan, melphalan, chlorambucil and 4-hydroperoxy cyclophosphamide)”, “(Em” for “(emission”
# [5] = test system: OPM-2; assay: In vitro cytotoxicity, OPM-2 (Multiple Myeloma); format: cell-based; details: Homo sapiens, read-out: Cytotoxicity IC50, OPM-2
# Description: as §2
# as §1, with “compounds” for “compounds (Example compounds 1 to 36, 38 to 41 and 45 to 48) and comparative compounds (bendamustine, busulfan, melphalan, chlorambucil and 4-hydroperoxy cyclophosphamide)”, “(Em” for “(emission”
# [6] = test system: RPMI-8226; assay: In vitro cytotoxicity, RPMI-8226 (Multiple Myeloma, resistant); format: cell-based; details: Homo sapiens, read-out: Cytotoxicity IC50, RPMI-8226
# Description: as §2
# as §1, with “compounds” for “compounds (Example compounds 1 to 36, 38 to 41 and 45 to 48) and comparative compounds (bendamustine, busulfan, melphalan, chlorambucil and 4-hydroperoxy cyclophosphamide)”, “(Em” for “(emission”
# [7] = test system: U266; assay: In vitro cytotoxicity, U266 (Multiple Myeloma); format: cell-based; details: Homo sapiens, read-out: Cytotoxicity IC50, U266
# Description: as §2
# as §1, with “compounds” for “compounds (Example compounds 1 to 36, 38 to 41 and 45 to 48) and comparative compounds (bendamustine, busulfan, melphalan, chlorambucil and 4-hydroperoxy cyclophosphamide)”, “(Em” for “(emission”
# [8] = test system: SC-1; assay: In vitro cytotoxicity, SC-1 (B cell Lymphoma); format: cell-based; details: Homo sapiens, read-out: Cytotoxicity IC50, SC-1
# Description: as §2
# as §1, with “compounds” for “compounds (Example compounds 1 to 36, 38 to 41 and 45 to 48) and comparative compounds (bendamustine, busulfan, melphalan, chlorambucil and 4-hydroperoxy cyclophosphamide)”, “(Em” for “(emission”
# [9] = In vitro cytotoxicity, BJ fibroblasts (normal cells); format: cell-based; details: human, CellTiter-Glo 2.0
# Description: as §2
# as §1, with “compounds” for “compounds (Example compounds 1 to 36, 38 to 41 and 45 to 48) and comparative compounds (bendamustine, busulfan, melphalan, chlorambucil and 4-hydroperoxy cyclophosphamide)”, “(Em” for “(emission”
# [10] = test system: U937; assay: In vitro cytotoxicity, U937 (Histiocytic Lymphoma); format: cell-based; details: Homo sapiens, U-937; 72 h, CellTiter-Glo 2.0; read-out: Cytotoxicity IC50, U937
# Description: as §2
# as §1, with “compounds” for “compounds (Example compounds 1 to 36, 38 to 41 and 45 to 48) and comparative compounds (bendamustine, busulfan, melphalan, chlorambucil and 4-hydroperoxy cyclophosphamide)”, “(Em” for “(emission”
# [11] = test system: SK-MM-1; assay: In vitro cytotoxicity, SK-MM-1 (Plasma Cell Leukemia); format: cell-based; details: Homo sapiens; 72 h, CellTiter-Glo 2.0; read-out: Cytotoxicity IC50, SK-MM-1
# Description: as §2
# as §1, with “compounds” for “compounds (Example compounds 1 to 36, 38 to 41 and 45 to 48) and comparative compounds (bendamustine, busulfan, melphalan, chlorambucil and 4-hydroperoxy cyclophosphamide)”, “(Em” for “(emission”
# [12] = test system: DOHH-2; assay: In vitro cytotoxicity, DOHH-2 (B Cell Lymphoma); format: cell-based; details: Homo sapiens, DOHH-2; 72 h, CellTiter-Glo 2.0; read-out: Cytotoxicity IC50, DOHH-2
# Description: as §2
# as §1, with “compounds” for “compounds (Example compounds 1 to 36, 38 to 41 and 45 to 48) and comparative compounds (bendamustine, busulfan, melphalan, chlorambucil and 4-hydroperoxy cyclophosphamide)”, “(Em” for “(emission”
# [13] = test system: HG-3; assay: In vitro cytotoxicity, HG-3 (Chronic Lymphocytic Leukemia); format: cell-based; details: Homo sapiens, HG-3; 72 h, CellTiter-Glo 2.0; read-out: Cytotoxicity IC50, HG-3
# Description: as §2
# as §1, with “compounds” for “compounds (Example compounds 1 to 36, 38 to 41 and 45 to 48) and comparative compounds (bendamustine, busulfan, melphalan, chlorambucil and 4-hydroperoxy cyclophosphamide)”, “(Em” for “(emission”
# [14] = test system: SU-DHL-8; assay: In vitro cytotoxicity, SU-DHL-8 (B-cell non-Hodgkin Lymphoma); format: cell-based; details: Homo sapiens, SU-DHL-8; 72 h, CellTiter-Glo 2.0; read-out: Cytotoxicity IC50, SU-DHL-8
# Description: as §2
# as §1, with “compounds” for “compounds (Example compounds 1 to 36, 38 to 41 and 45 to 48) and comparative compounds (bendamustine, busulfan, melphalan, chlorambucil and 4-hydroperoxy cyclophosphamide)”, “(Em” for “(emission”
# [15] = test system: Toledo; assay: In vitro cytotoxicity, Toledo (Diffuse Large B Cell Lymphoma); format: cell-based; details: Homo sapiens, 72 h, CellTiter-Glo 2.0, read-out: Cytotoxicity IC50, Toledo
# Description: as §2
# as §1, with “compounds” for “compounds (Example compounds 1 to 36, 38 to 41 and 45 to 48) and comparative compounds (bendamustine, busulfan, melphalan, chlorambucil and 4-hydroperoxy cyclophosphamide)”, “(Em” for “(emission”
# [16] = read-out: Cytotoxicity IC50, MM.1S
# [17] = CellTiter-Glo 2.0, read-out: Cytotoxicity IC50, EJM
# [18] = CellTiter-Glo 2.0, read-out: Cytotoxicity IC50, KMS-12-BM
# [19] = RPMI-8226, 72 h, CellTiter-Glo 2.0
SMILES,"IC50 [1, 16] [nM]",IC50 ([1]; read-out: MM.1S IC50) [nM],IC50 at 72 h [9] [nM],"IC50 ([2]; AMO1, 72 h, CellTiter-Glo 2.0) [nM]","IC50 [3, 17] [nM]","IC50 [4, 18] [nM]","IC50 ([5]; OPM-2, 72 h, CellTiter-Glo 2.0) [nM]","IC50 [6, 19] [nM]","IC50 ([7]; U-266, 72 h, CellTiter-Glo 2.0) [nM]","IC50 ([8]; SC-1, 72 h, CellTiter-Glo 2.0) [nM]",further results
"CCOC(=O)[C@H](CC(C)C)NC(=O)[C@@H](N)CCc1nc2cc(N(CCCl)CCCl)ccc2n1-c1ccccc1 [Example 13, Ethyl (2S)-2-[[(2S)-2-amino-4-[5-[bis(2-chloroethyl)amino]-1-phenyl-benzimidazol-2-yl]butanoyl]amino]-4-methyl-pentanoate]",49,49,> 2000,–,–,–,–,–,–,–,"IC50 ([2]; AMO1, 72 h): 965 nM; IC50 ([3]; read-out: Cytotoxicity IC50, EJM): 356 nM; IC50 ([4]; read-out: Cytotoxicity IC50, KMS-12-BM): 137 nM; IC50 ([5]; OPM-2, 72 h): 2110 nM; IC50 ([6]; RPMI-8226, 72 h): 1720 nM; IC50 ([7]; U-266, 72 h): 400 nM; IC50 ([8]; SC-1, 72 h): 134 nM"
"CC(C)C[C@H](NC(=O)[C@@H](N)CCc1nc2cc(N(CCCl)CCCl)ccc2n1C)C(=O)N(C)C [Example 30, (2S)-2-[[(2S)-2-Amino-4-[5-[bis(2-chloroethyl)amino]-1-methyl-benzimidazol-2-yl]butanoyl]amino]-N,N,4-trimethyl-pentanamide]",39.7,39.7,> 2000,653,173,45,322,492,131,53.7,–
"CCOC(=O)[C@H](Cc1ccc(F)cc1)NC(=O)[C@H](CCc1nc2cc(N(CCCl)CCCl)ccc2n1C)NC(C)=O [Example 34, Ethyl (2S)-2-[[(2S)-2-acetamido-4-[5-[bis(2-chloroethyl)amino]-1-methyl-benzimidazol-2-yl]butanoyl]amino]-3-(4-fluorophenyl)propanoate]",68.3,68.3,> 2000,758,637,105,961,1450,266,1060,IC50 [10]: 397 nM; IC50 [11]: 604 nM; IC50 [12]: 543 nM; IC50 [13]: 888 nM; IC50 [14]: 202 nM; IC50 [15]: 328 nM
